Data on one compound can be found in the NIST ThermoML archive (doi:10.1021/je400076x).

The conditions of this data set: Crystal; DTA.

Each structure is given as a SMILES string. ± gives the expanded uncertainty stated by the source.

With `CCCCn1cc[n+](C)c1.[Cl-]` [1-butyl-3-methylimidazolium chloride], the Normal melting temperature was 60.30 ± 5 °C.
